In patent US11566007B2, “Ras inhibitors” (Revolution Medicines, Inc., priority 2019, dated 2023):
Read-outs that look alike come from different tables or passages of the source.

Tests used:
[1] = test system: NCI-H358 cells (K-Ras G12C); assay: Potency assay: pERK in NCI-H358 cells; type: cell-based, human; conditions: H358 KRAS G12C, read-out: pERK EC50
Outline: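 Compounds are dosed as ten 3-fold dilutions from a 10 mM DMSO stock, in duplicate, and left on cells for 4 h at 37 °C, 5% CO2. Phospho-ERK1/2 is then quantified by AlphaLISA SureFire Ultra or In-Cell Western, and IC50 is derived from a 4-parameter sigmoid against log concentration.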

NCI-H358 (K-Ras G12C) = assay: CellTiter-Glo cell viability assay, NCI-H358; type: cell-based, human; conditions: class symbols
Outline: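 Luminescent viability readout on day 5 after direct compound addition to plated cells; plates sat ~30 min at room temperature before reading. Values expressed as percent of mean DMSO signal, curves fit with a four-parameter logistic model.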

[2] = Homo sapiens, NCI-H358, 120 h, NCI-H358, 5-day treatment, read-out: Additional H358 Cell Viability assay data (K-Ras G12C, IC50)
[3] = NCI-H358, 5-day treatment, read-out: Additional H358 Cell Viability assay data (K-Ras G12C, IC50)

EC50 ([1]; Homo sapiens, NCI-H358) | IC50 (NCI-H358 (K-Ras G12C); [2]) | SMILES | EC50 [1] | IC50 (NCI-H358 (K-Ras G12C); [3]) | IC50 (NCI-H358 (K-Ras G12C); Homo sapiens, NCI-H358, 120 h, read-out: Additional H358 Cell Viability assay data (K-Ras G12C, IC50, uM), NCI-H358, 5-day treatment)
< 5000 nM | 0.1 to 1 µM | C=CC(=O)N1CC[C@H](C(=O)N(C)[C@H](C(=O)N[C@H]2Cc3cc(O)cc(c3)-c3ccc4c(c3)c(c(-c3cccnc3CN(C)C)n4CC)CC(C)(C)COC(=O)[C@@H]3CCCN(N3)C2=O)C(C)C)C1 [Example A92] | – | – | –
< 5000 nM | 0.01 to 0.1 µM | C=CC(=O)N1CC[C@H](C(=O)N(C)[C@H](C(=O)N[C@H]2Cc3cc(O)cc(c3)-c3ccc4c(c3)c(c(-c3cncc(COC)c3)n4CC)CC(C)(C)COC(=O)[C@@H]3CCCN(N3)C2=O)C(C)C)C1 [Example A83] | – | – | –
< 5000 nM | 0.1 to 1 µM | C=CC(=O)N1CC[C@H](C(=O)N(C)[C@H](C(=O)N[C@H]2Cc3cc(O)cc(c3)-c3ccc4c(c3)c(c(-c3ccccc3N3CCOCC3)n4CC)CC(C)(C)COC(=O)[C@@H]3CCCN(N3)C2=O)C(C)C)C1 [Example A26] | – | – | –
< 5000 nM | 0.1 to 1 µM | C=CC(=O)N1CCC(C(=O)N(C)[C@H](C(=O)N[C@H]2Cc3cc(O)cc(c3)-c3ccc4c(c3)c(c(-c3ccccc3CCOC)n4CC)CC(C)(C)COC(=O)[C@@H]3CCCN(N3)C2=O)C(C)C)CC1 [Example A14] | – | – | –
< 5000 nM | 0.01 to 0.1 µM | C=CC(=O)N1CC[C@H](C(=O)N(C)[C@H](C(=O)N[C@H]2Cc3cc(O)cc(c3)-c3ccc4c(c3)c(c(-c3ccc(CN(C)C)cc3COC)n4CC)CC(C)(C)COC(=O)[C@@H]3CCCN(N3)C2=O)C(C)C)C1 [Example A51] | – | – | –
< 5000 nM | 0.1 to 1 µM | C=CC(=O)N1CC[C@H](C(=O)N(C)[C@H](C(=O)N[C@H]2Cc3cc(O)cc(c3)-c3ccc4c(c3)c(c(-c3ccc(CN5CC[C@@H](O)C5)cc3)n4CC)CC(C)(C)COC(=O)[C@@H]3CCCN(N3)C2=O)C(C)C)C1 [Example A1] | – | – | –
< 5000 nM | 0.1 to 1 µM | C=CC(=O)N1CC[C@H](C(=O)N(C)[C@H](C(=O)N[C@H]2Cc3cc(O)cc(c3)-c3ccc4c(c3)c(c(-c3c(CCOC)cccc3OC)n4CC)CC(C)(C)COC(=O)[C@@H]3CCCN(N3)C2=O)C(C)C)C1 [Example A80] | – | – | –
< 5000 nM | 0.1 to 1 µM | C=CC(=O)N1CC[C@H](C(=O)N(C)[C@H](C(=O)N[C@H]2Cc3cc(O)cc(c3)-c3ccc4c(c3)c(c(-c3nccnc3COC)n4CC)CC(C)(C)COC(=O)[C@@H]3CCCN(N3)C2=O)C(C)C)C1 [Example A85] | – | – | –
< 5000 nM | 0.01 to 0.1 µM | C=CC(=O)N1CC[C@H](C(=O)N(C)[C@H](C(=O)N[C@H]2Cc3cc(O)cc(c3)-c3ccc4c(c3)c(c(-c3ccc(C5CCN(C)CC5)nc3)n4CC)CC(C)(C)COC(=O)[C@@H]3CCCN(N3)C2=O)C(C)C)C1 [Example A98] | – | – | –
< 5000 nM | 0.1 to 1 µM | C=CC(=O)N1CC[C@H](C(=O)N(C)[C@H](C(=O)N[C@H]2Cc3cc(O)cc(c3)-c3ccc4c(c3)c(c(-c3ccc(CN(C)C)cc3)n4CC)CC(C)(C)COC(=O)[C@@H]3CCCN(N3)C2=O)C(C)C)C1 [Example A3] | – | – | –
< 5000 nM | 0.1 to 1 µM | C=CC(=O)N1CCC(C(=O)N(C)[C@H](C(=O)N[C@H]2Cc3cc(O)cc(c3)-c3ccc4c(c3)c(c(-c3ccccc3CN(C)C)n4CC)CC(C)(C)COC(=O)[C@@H]3CCCN(N3)C2=O)C(C)C)CC1 [Example A33] | – | – | –
< 5000 nM | 0.01 to 0.1 µM | C=CC(=O)N1CC[C@H](C(=O)N(C)[C@H](C(=O)N[C@H]2Cc3cc(O)cc(c3)-c3ccc4c(c3)c(c(-c3ccc(N5CCN(C)CC5)nc3)n4CC)CC(C)(C)COC(=O)[C@@H]3CCCN(N3)C2=O)C(C)C)C1 [Example A89, (2S)-N-[(8S,14S)-22-ethyl-4-hydroxy-18,18-dimethyl-21-[6-(4-methylpiperazin-1-yl)pyridin-3-yl]-9,15-dioxo-16-oxa-10,22,28-triazapentacyclo[18.5.2.1^2,^6.1^10,^14.0^23,^27]nonacosa-1(26),2,4,6(29),20,23(27),24-heptaen-8-yl]-3-methyl-2-{N-methyl-1-[(3S)-1-(prop-2-enoyl)pyrrolidin-3-yl]formamido}butanamide] | – | – | –
< 5000 nM | 0.01 to 0.1 µM | C=CC(=O)N1CC[C@H](C(=O)N(C)[C@H](C(=O)N[C@H]2Cc3cc(O)cc(c3)-c3ccc4c(c3)c(c(-c3cccnc3COC)n4CC)CC(C)(C)COC(=O)[C@@H]3CCCN(N3)C2=O)C(C)C)C1 [Example A16] | – | – | –
< 5000 nM | 0.01 to 0.1 µM | C=CC(=O)N1CC[C@H](C(=O)N(C)[C@H](C(=O)N[C@H]2Cc3cc(O)cc(c3)-c3ccc4c(c3)c(c(-c3ccccc3CN(C)C)n4CC)CC(C)(C)COC(=O)[C@@H]3CCCN(N3)C2=O)C(C)C)C1 [Example A5] | – | – | –

Second part, the compound before the results:

SMILES | EC50 ([1]; Homo sapiens, NCI-H358) | IC50 (NCI-H358 (K-Ras G12C); [2]) | EC50 [1] | IC50 (NCI-H358 (K-Ras G12C); [3]) | IC50 (NCI-H358 (K-Ras G12C); Homo sapiens, NCI-H358, 120 h, read-out: Additional H358 Cell Viability assay data (K-Ras G12C, IC50, uM), NCI-H358, 5-day treatment)
C=CC(=O)N1CC[C@H](C(=O)N(C)[C@H](C(=O)N[C@H]2Cc3cccc(c3)-c3ccc4c(c3)c(c(-c3ccccc3CCOC)n4CC)CC(C)(C)COC(=O)[C@@H]3CCCN(N3)C2=O)C(C)C)C1 (atropisomer, axis not shown) [Example A24] | < 5000 nM | > 1 µM | – | – | –
C=CC(=O)N1CC[C@H](C(=O)N(C)[C@H](C(=O)N[C@H]2Cc3cc(O)cc(c3)-c3ccc4c(c3)c(c(-c3cnccc3COC)n4CC)CC(C)(C)COC(=O)[C@@H]3CCCN(N3)C2=O)C(C)C)C1 [Example A91] | < 5000 nM | < 0.01 µM | – | – | –
C=CC(=O)N1CC[C@H](C(=O)N(C)[C@H](C(=O)N[C@H]2Cc3cc(O)cc(c3)-c3ccc4c(c3)c(c(-c3ccccc3COC)n4CC)CC(C)(C)COC(=O)[C@@H]3CCCN(N3)C2=O)C2CCCC2)C1 [Example A27] | < 5000 nM | 0.01 to 0.1 µM | – | – | –
C=CC(=O)N1CC[C@H](C(=O)N(C)[C@H](C(=O)N[C@H]2Cc3cc(O)cc(c3)-c3ccc4c(c3)c(c(-c3cncnc3)n4CC)CC(C)(C)COC(=O)[C@@H]3CCCN(N3)C2=O)C(C)C)C1 [Example A61] | < 5000 nM | 0.01 to 0.1 µM | – | – | –
C=CC(=O)N1CCC(F)(C(=O)N(C)[C@H](C(=O)N[C@H]2Cc3cc(O)cc(c3)-c3ccc4c(c3)c(c(-c3ccccc3CCOC)n4CC)CC(C)(C)COC(=O)[C@@H]3CCCN(N3)C2=O)C(C)C)CC1 [Example A11] | < 5000 nM | 0.1 to 1 µM | – | – | –
C=CS(=O)(=O)N1CC[C@H](C(=O)N(C)[C@H](C(=O)N[C@H]2Cc3cc(O)cc(c3)-c3ccc4c(c3)c(c(-c3cccnc3COC)n4CC)CC(C)(C)COC(=O)[C@@H]3CCCN(N3)C2=O)C(C)C)C1 [Example A69] | < 5000 nM | 0.01 to 0.1 µM | – | – | –
C=CC(=O)N1C[C@H](C)[C@H](C(=O)N(C)[C@H](C(=O)N[C@H]2Cc3cc(O)cc(c3)-c3ccc4c(c3)c(c(-c3ccccc3CCOC)n4CC)CC(C)(C)COC(=O)[C@@H]3CCCN(N3)C2=O)C(C)C)C1 [Example A41] | < 5000 nM | 0.01 to 0.1 µM | – | – | –
C=CC(=O)N1CC[C@H](C(=O)N(C)[C@H](C(=O)N[C@H]2Cc3cc(O)cc(c3)-c3ccc4c(c3)c(c(-c3cnccc3COC)n4CC)CC(C)(C)COC(=O)[C@@H]3CCCN(N3)C2=O)C(C)C)C1 [Example A28, (2S)-N-[(8S,14S)-22-ethyl-4-hydroxy-21-[4-(methoxymethyl)pyridin-3-yl]-18,18-dimethyl-9,15-dioxo-16-oxa-10,22,28-triazapentacyclo[18.5.2.1^[2,6].1^[10,14].0^[23,27]]nonacosa-1(26),2,4,6(29),20,23(27),24-heptaen-8-yl]-3-methyl-2-[N-methyl-1-[(3S)-1-(prop-2-enoyl)pyrrolidin-3-yl]formamido]butanamide] | – | – | < 5000 nM | < 0.01 µM | –
CCn1c(-c2cccnc2COC)c2c3cc(ccc31)-c1cc(O)cc(c1)C[C@H](NC(=O)[C@H](C(C)C)N(C)C(=O)C1CN(C(=O)C#CCN(C)C)C1)C(=O)N1CCC[C@H](N1)C(=O)OCC(C)(C)C2 [Example A97] | < 5000 nM | 0.01 to 0.1 µM | – | – | –
C=CC(=O)N1C[C@H](C)[C@H](C(=O)N(C)[C@H](C(=O)N[C@H]2Cc3cc(O)cc(c3)-c3ccc4c(c3)c(c(-c3cccnc3COC)n4CC)CC(C)(C)COC(=O)[C@@H]3CCCN(N3)C2=O)C(C)C)C1 [Example A56] | < 5000 nM | – | – | – | < 0.01 µM
C=CC(=O)N1CC[C@H](C(=O)N(C)[C@H](C(=O)N[C@H]2Cc3cc(O)cc(c3)-c3ccc4c(c3)c(c(-c3ccc(C5CCN(C)CC5)cc3)n4CC)CC(C)(C)COC(=O)[C@@H]3CCCN(N3)C2=O)C(C)C)C1 [Example A39] | < 5000 nM | 0.01 to 0.1 µM | – | – | –
C=CC(=O)N1CCCN(C(=O)N(C)[C@H](C(=O)N[C@H]2Cc3cc(O)cc(c3)-c3ccc4c(c3)c(c(-c3ccccc3CCOC)n4CC)CC(C)(C)COC(=O)[C@@H]3CCCN(N3)C2=O)C(C)C)CC1 [Example A13] | < 5000 nM | 0.1 to 1 µM | – | – | –
C=CC(=O)N1CC[C@H](C(=O)N(C)[C@H](C(=O)N[C@H]2Cc3cc(O)cc(c3)-c3ccc4c(c3)c(c(-c3cccnc3COC)n4CC#N)CC(C)(C)COC(=O)[C@@H]3CCCN(N3)C2=O)C(C)C)C1 [Example A93] | < 5000 nM | 0.01 to 0.1 µM | – | – | –
C=CC(=O)N1CC[C@H](C(=O)N(C)[C@H](C(=O)N[C@H]2Cc3cc(O)cc(c3)-c3cc(F)c4c(c3)c(c(-c3ccccc3CCOC)n4CC)CC(C)(C)COC(=O)[C@@H]3CCCN(N3)C2=O)C(C)C)C1 (atropisomer, axis not shown) [Example A53] | < 5000 nM | 0.1 to 1 µM | – | – | –
CC#CC(=O)N1CC[C@H](C(=O)N(C)[C@@H](C(=O)N[C@H]2Cc3cc(O)cc(c3)-c3ccc4c(c3)c(c(-c3cccnc3[C@H](C)OC)n4CC)CC(C)(C)COC(=O)[C@@H]3CCCN(N3)C2=O)C(C)C)C1 (atropisomer, axis not shown) [Example A199] | – | – | < 5000 nM | 0.1 to 1 µM | –
C=CC(=O)N1CC[C@H](C(=O)N(C)[C@H](C(=O)N[C@H]2Cc3cc(O)cc(c3)-c3ccc4c(c3)c(c(-c3ccncc3)n4C(C)(C)C#N)CC(C)(C)COC(=O)[C@@H]3CCCN(N3)C2=O)C(C)C)C1 [Example A86] | < 5000 nM | 0.01 to 0.1 µM | – | – | –
